Values quoted from earlier work, collected in US20230338417A1, “Improved Pharmaceutical Preparation” (priority 2020, published 2023).

Row | Molecule | Acid dissociation constant as pKa at 298K
1 | [O-][Cl+2]([O-])O [chloric acid] | 0
2 | peroxochloric acid | approx. 6.2
